Measured values as given in PubChem BioAssay (NCI).
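Following 48 hours of exposure in 96-well plates, responses at five concentrations were used to interpolate endpoints linearly. The concentration for full growth arrest is given as TGI.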

Assays:
Experiment in all cases: NCI-60 cell line screen, 48 h
SR leukemia = tested on: SR leukemia
EKVX NSCLC = tested on: EKVX NSCLC
ACHN renal = tested on: ACHN renal
HOP-62 NSCLC = tested on: HOP-62 NSCLC
KM12 colon = tested on: KM12 colon
RXF-631 renal = tested on: RXF-631 renal
UACC-257 melanoma = tested on: UACC-257 melanoma
SK-MEL-2 melanoma = tested on: SK-MEL-2 melanoma
UACC-62 melanoma = tested on: UACC-62 melanoma
SK-MEL-28 melanoma = tested on: SK-MEL-28 melanoma
SK-MEL-5 melanoma = tested on: SK-MEL-5 melanoma
TK-10 renal = tested on: TK-10 renal
MALME-3M melanoma = tested on: MALME-3M melanoma
XF 498 CNS = tested on: XF 498 CNS
OVCAR-5 ovarian = tested on: OVCAR-5 ovarian
U251 CNS = tested on: U251 CNS
DMS 114 small cell lung = tested on: DMS 114 small cell lung
RXF 393 renal = tested on: RXF 393 renal
SNB-19 CNS = tested on: SNB-19 CNS
MDA-N = tested on: MDA-N
M19-MEL melanoma = tested on: M19-MEL melanoma
COLO 205 colon = tested on: COLO 205 colon
SK-OV-3 ovarian = tested on: SK-OV-3 ovarian
IGROV1 ovarian = tested on: IGROV1 ovarian
SF-295 CNS = tested on: SF-295 CNS
UO-31 renal = tested on: UO-31 renal
HCT-116 colon = tested on: HCT-116 colon
DMS 273 small cell lung = tested on: DMS 273 small cell lung
MOLT-4 leukemia = tested on: MOLT-4 leukemia
SNB-75 CNS = tested on: SNB-75 CNS
OVCAR-3 ovarian = tested on: OVCAR-3 ovarian
LOX IMVI melanoma = tested on: LOX IMVI melanoma
M14 melanoma = tested on: M14 melanoma
HOP-92 NSCLC = tested on: HOP-92 NSCLC
CAKI-1 renal = tested on: CAKI-1 renal
NCI-H23 lung = tested on: NCI-H23 lung
RPMI-8226 leukemia = tested on: RPMI-8226 leukemia
KM20L2 colon = tested on: KM20L2 colon
HT29 colon = tested on: HT29 colon
LXFL 529 NSCLC = tested on: LXFL 529 NSCLC
NCI-H460 lung = tested on: NCI-H460 lung
K-562 leukemia = tested on: K-562 leukemia
SNB-78 CNS = tested on: SNB-78 CNS
A549 NSCLC = tested on: A549 NSCLC
HOP-18 NSCLC = tested on: HOP-18 NSCLC
CCRF-CEM leukemia = tested on: CCRF-CEM leukemia
HCC-2998 colon = tested on: HCC-2998 colon
HCT-15 colon = tested on: HCT-15 colon
SF-539 CNS = tested on: SF-539 CNS
NCI-H226 lung = tested on: NCI-H226 lung
SW-620 colon = tested on: SW-620 colon
SN12C renal = tested on: SN12C renal
OVCAR-8 ovarian = tested on: OVCAR-8 ovarian
DLD-1 colon = tested on: DLD-1 colon
SF-268 CNS = tested on: SF-268 CNS
HL-60(TB) leukemia = tested on: HL-60(TB) leukemia
OVCAR-4 ovarian = tested on: OVCAR-4 ovarian
786-0 renal = tested on: 786-0 renal
NCI-H522 lung = tested on: NCI-H522 lung

Which results are given for `CCN(CC)c1ccc(C(=C2C=CC(=[N+](CC)CC)C=C2)c2ccc(N(CC)CC)cc2)cc1`?
TGI (SR leukemia): 582 nM; TGI (EKVX NSCLC): 1540 nM; TGI (ACHN renal): 348 nM; TGI (HOP-62 NSCLC): 1580 nM; TGI (KM12 colon): 1180 nM; TGI (RXF-631 renal): 1180 nM; TGI (UACC-257 melanoma): 1010 nM; TGI (SK-MEL-2 melanoma): 687 nM; TGI (UACC-62 melanoma): 1520 nM; TGI (SK-MEL-28 melanoma): 1820 nM; TGI (SK-MEL-5 melanoma): 237 nM; TGI (TK-10 renal): 1450 nM; TGI (MALME-3M melanoma): 588 nM; TGI (XF 498 CNS): 81.5 nM; TGI (OVCAR-5 ovarian): 1060 nM; TGI (U251 CNS): 1310 nM; TGI (DMS 114 small cell lung): 787 nM; TGI (RXF 393 renal): 1040 nM; TGI (SNB-19 CNS): 1790 nM; TGI (MDA-N): 1160 nM; TGI (M19-MEL melanoma): 1310 nM; TGI (COLO 205 colon): 503 nM; TGI (SK-OV-3 ovarian): 624 nM; TGI (IGROV1 ovarian): 1180 nM; TGI (SF-295 CNS): 1110 nM; TGI (UO-31 renal): 724 nM; TGI (HCT-116 colon): 1310 nM; TGI (DMS 273 small cell lung): 1150 nM; TGI (MOLT-4 leukemia): 1780 nM; TGI (SNB-75 CNS): 1440 nM

For `COC(=O)C(CC=O)C(=O)C(=O)Nc1cccc(C(F)(F)F)c1` (stereo not given), which TGI (SR leukemia) is on record?
The TGI was over 100000 nM.

What about the TGI (EKVX NSCLC) of the same molecule?
The TGI was over 100000 nM.

What about the TGI (ACHN renal) of the same molecule?
The TGI was over 100000 nM.

And the TGI (OVCAR-3 ovarian)?
The TGI was over 100000 nM.

What about the TGI (HOP-62 NSCLC) of the same molecule?
Its TGI is over 100000 nM.

What about the TGI (KM12 colon) of the same molecule?
The TGI was over 100000 nM.

What about the TGI (LOX IMVI melanoma) of the same molecule?
The TGI was over 100000 nM.

What about the TGI (M14 melanoma) of the same molecule?
The TGI was over 100000 nM.

And the TGI (HOP-92 NSCLC)?
The TGI was over 100000 nM.

And the TGI (RXF-631 renal)?
The TGI was over 100000 nM.

What about the TGI (CAKI-1 renal) of the same molecule?
The TGI was over 100000 nM.

What about the TGI (NCI-H23 lung) of the same molecule?
Its TGI is over 100000 nM.

And the TGI (UACC-257 melanoma)?
The TGI was over 100000 nM.

And the TGI (SK-MEL-2 melanoma)?
The TGI was over 100000 nM.

What about the TGI (RPMI-8226 leukemia) of the same molecule?
Its TGI is over 100000 nM.

What about the TGI (UACC-62 melanoma) of the same molecule?
Its TGI is over 100000 nM.

And the TGI (KM20L2 colon)?
Its TGI is over 100000 nM.

What about the TGI (SK-MEL-28 melanoma) of the same molecule?
Its TGI is over 100000 nM.

What about the TGI (HT29 colon) of the same molecule?
The TGI was over 100000 nM.

And the TGI (SK-MEL-5 melanoma)?
Its TGI is over 100000 nM.

And the TGI (TK-10 renal)?
Its TGI is over 100000 nM.

And the TGI (LXFL 529 NSCLC)?
The TGI was over 100000 nM.

And the TGI (NCI-H460 lung)?
The TGI was over 100000 nM.

And the TGI (K-562 leukemia)?
The TGI was over 100000 nM.

What about the TGI (SNB-78 CNS) of the same molecule?
Its TGI is over 100000 nM.

And the TGI (A549 NSCLC)?
The TGI was over 100000 nM.

What about the TGI (HOP-18 NSCLC) of the same molecule?
The TGI was over 100000 nM.

And the TGI (MALME-3M melanoma)?
Its TGI is over 100000 nM.

What about the TGI (CCRF-CEM leukemia) of the same molecule?
Its TGI is over 100000 nM.

What about the TGI (HCC-2998 colon) of the same molecule?
Its TGI is over 100000 nM.

And the TGI (HCT-15 colon)?
The TGI was over 100000 nM.

And the TGI (XF 498 CNS)?
The TGI was over 100000 nM.

And the TGI (SF-539 CNS)?
The TGI was over 100000 nM.

What about the TGI (NCI-H226 lung) of the same molecule?
Its TGI is over 100000 nM.

What about the TGI (SW-620 colon) of the same molecule?
Its TGI is over 100000 nM.

And the TGI (SN12C renal)?
The TGI was over 100000 nM.

And the TGI (OVCAR-8 ovarian)?
The TGI was over 100000 nM.

What about the TGI (OVCAR-5 ovarian) of the same molecule?
The TGI was over 100000 nM.

And the TGI (DLD-1 colon)?
Its TGI is over 100000 nM.

And the TGI (U251 CNS)?
Its TGI is over 100000 nM.

What about the TGI (DMS 114 small cell lung) of the same molecule?
Its TGI is over 100000 nM.

And the TGI (RXF 393 renal)?
Its TGI is over 100000 nM.

And the TGI (SNB-19 CNS)?
Its TGI is over 100000 nM.

What about the TGI (M19-MEL melanoma) of the same molecule?
The TGI was over 100000 nM.

And the TGI (SK-OV-3 ovarian)?
The TGI was over 100000 nM.

And the TGI (SF-268 CNS)?
The TGI was over 100000 nM.

What about the TGI (IGROV1 ovarian) of the same molecule?
Its TGI is over 100000 nM.

What about the TGI (HL-60(TB) leukemia) of the same molecule?
Its TGI is over 100000 nM.

What about the TGI (SF-295 CNS) of the same molecule?
The TGI was over 100000 nM.

And the TGI (UO-31 renal)?
Its TGI is over 100000 nM.

What about the TGI (HCT-116 colon) of the same molecule?
The TGI was over 100000 nM.

What about the TGI (MOLT-4 leukemia) of the same molecule?
The TGI was over 100000 nM.

And the TGI (OVCAR-4 ovarian)?
Its TGI is over 100000 nM.

And the TGI (786-0 renal)?
The TGI was over 100000 nM.

And the TGI (NCI-H522 lung)?
The TGI was over 100000 nM.
